Source: paper PMC10349806 (Nature Communications, 2023)
Values joined by “and” are separate entries in the source; they are usually repeats but may differ in a detail not shown here. Equal values may be shown once.

Target: PfCRT^Dd2 (Plasmodium falciparum, UniProt Q9N623, A220S/I356T/K76T/M74I/N326S/N75E/Q271E/R371I)
Assay: Drug uptake assay, X. laevis oocytes expressing PfCRT^Dd2
Type: cell-based
Conditions: for Kd: KS^CQ; for Vmax: CQ vs protons
Protocol: Oocytes were obtained as described previously. Briefly, adult (>2 years old) female X. laevis frogs (NASCO) were anesthetized in a cooled solution of ethyl 3-amino benzoate methanesulfonate (0.1%, w/v), followed by a surgical removal of parts of the ovary. The ovary lobes were carefully dissected and small pieces of oocytes were incubated in Ca^2+-free ND96 buffer (96 mM NaCl, 2 mM KCl, 1 mM MgCl2 buffered with 5 mM HEPES/NaOH, pH 7.5) supplemented with collagenase D (0.1%, w/v; Roche), BSA (0.5%, w/v), and 9 mm Na2HPO4 at 18 °C for 14-16 h while gentle shaking. After incubation, the oocytes were carefully washed several times with ND96 buffer (96 mM NaCl, 2 mM KCl, 1.8 mM CaCl2, 1 mM MgCl2 buffered with 5 mM HEPES/NaOH, pH 7.5) supplemented with 100 mg l^−1 gentamycin). Defolliculated and healthy-looking stage V-VI oocytes were manually selected for RNA microinjection. The RNA was generated as following: The codon-optimized sequences of PfCRT variants were cloned into the pSP64T expression vector. After vector linearization using the restriction endonucleases BamHI or SalI (New England Biolabs), transcription was performed using the in vitro SP6 mMessage mMachine Kit (Ambion)[34]. The obtained RNA was kept at −80 °C and diluted with nuclease-free water to a concentration of 0.6 μg μl^−1. Precision-bore glass capillary tubes (3.5-inch glass capillaries; Drummond Scientific Co.) were pulled on a vertical puller (P-87 Flaming/Brown micropipette puller, Sutter Instrument Co.), graduated, and placed on a microinjector (Nanoject II Auto-Nanoliter Injector, Drummond Scientific Co.). 50 nl of nuclease-free water alone (control oocytes) or 50 nl of 0.6 μg μl^−1 RNA were injected under stereomicroscopic control. Injected oocytes were incubated for 46–72 h at 18 °C with twice-daily buffer changes before usage in experiments.
Drug uptake assays were performed as described previously[21],[22],[24],[34]. […] The direction of radio-labeled drug transport is here from the mostly acidic extracellular solution (pH 4.5 or 6.0, as indicated) into the oocyte cytosol (pH ∼ 7.2), which corresponds to the efflux of drug from the acidic digestive vacuole (pH 5.2) into the parasite cytoplasm (pH 7.2). The topology of PfCRT in the oolemma is such that both the N- and C-terminus face the extracellular milieu[3],[22]. In the parasite, the N- and C-terminus face the lumen of the digestive vacuole. […] For determination of the amount of drug uptake for each oocyte, the reaction medium was removed and the oocytes were washed three times with 2 ml of ice-cold ND96 buffer. Each oocyte was individually transferred to a scintillation vial containing 5% sodium dodecyl sulfate (200 μl) for lysis. […] Oocytes that were injected with water instead of RNA were analyzed in parallel, representing the uptake of a drug by diffusion and/or endogenous permeation pathways. The resulting value represents the “background“ level of drug accumulation in oocytes (in-depth discussion in[22]). The specific PfCRT-mediated uptake was determined by subtracting the corresponding background value measured in water-injected oocytes from that of PfCRT-expressing oocytes. In all cases, at least three separate experiments were performed on oocytes from different frogs (biological replicate), and for each condition in an experiment, measurements were made from 10 oocytes per treatment. For pH 5.5, 6.0, and 6.5, ND96 was buffered with 5 mM MES/Tris base. For pH 4.5, 5 mM Homo-Pipes was used as a buffer and 5 mM HEPES for uptake at pH 7.0.

[1] = mixed (partial) model, mean ± SEM
[2] = PfCRTDd2, 50 µM CQ, 1 h, mean ± SEM

Chain of PfCRT^Dd2 (Q9N623 whole entry A220S/I356T/K76T/M74I/N326S/N75E/Q271E/R371I): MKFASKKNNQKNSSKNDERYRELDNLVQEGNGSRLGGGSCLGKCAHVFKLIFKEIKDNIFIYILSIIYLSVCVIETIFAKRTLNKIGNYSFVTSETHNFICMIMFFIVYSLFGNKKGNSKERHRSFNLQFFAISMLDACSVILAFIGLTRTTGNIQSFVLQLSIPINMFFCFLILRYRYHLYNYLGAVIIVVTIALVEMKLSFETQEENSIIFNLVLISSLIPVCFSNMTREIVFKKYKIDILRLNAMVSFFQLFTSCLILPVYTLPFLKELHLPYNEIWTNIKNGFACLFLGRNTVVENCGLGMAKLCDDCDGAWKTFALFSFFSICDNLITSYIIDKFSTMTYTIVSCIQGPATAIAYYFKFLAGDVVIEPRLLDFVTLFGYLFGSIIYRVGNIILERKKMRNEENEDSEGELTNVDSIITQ

SMILES: CCN(CC)CCCC(C)Nc1ccnc2cc(Cl)ccc12 (centres unmarked) [CQ, chloroquine]
- v-1 pH 6.0 (500 µM CQ, Lineweaver-Burk): 0.05 (pmol oocyte-1 h-1)-1
- inflection point in the weakly acidic pH range (CQ transport vs pH): ~ 5.2 pH
- PfCRTDd2 transport activity pH 4.5 (CQ uptake, X. laevis oocytes expressing PfCRTDd2, pH 4.5, individual replicates (Fig 6b)): 0.81 pmol oocyte-1 h-1 and 1.13 pmol oocyte-1 h-1 and 0.91 pmol oocyte-1 h-1 and 1.51 pmol oocyte-1 h-1 and 1.64 pmol oocyte-1 h-1 and 1.57 pmol oocyte-1 h-1
- PfCRTDd2 transport activity pH 4.5 (CQ uptake, X. laevis oocytes expressing PfCRTDd2, pH 4.5, individual replicates (source data Fig 1d left)): 0.89 pmol oocyte-1 h-1 and 0.81 pmol oocyte-1 h-1 and 1.13 pmol oocyte-1 h-1 and 0.91 pmol oocyte-1 h-1 and 1.51 pmol oocyte-1 h-1 and 1.64 pmol oocyte-1 h-1
- PfCRTDd2 transport activity pH 6.0 (CQ uptake, X. laevis oocytes expressing PfCRTDd2, pH 6.0, individual replicates (Fig 6b)): 3.69 pmol oocyte-1 h-1 and 3.79 pmol oocyte-1 h-1 and 3.00 pmol oocyte-1 h-1 and 3.40 pmol oocyte-1 h-1 and 3.90 pmol oocyte-1 h-1 and 6.11 pmol oocyte-1 h-1 and 4.28 pmol oocyte-1 h-1 and 5.58 pmol oocyte-1 h-1 and 6.47 pmol oocyte-1 h-1 and 3.37 pmol oocyte-1 h-1 and 3.28 pmol oocyte-1 h-1 and 4.53 pmol oocyte-1 h-1 and 3.68 pmol oocyte-1 h-1 and 5.95 pmol oocyte-1 h-1 and 11.50 pmol oocyte-1 h-1 and 6.00 pmol oocyte-1 h-1 and 4.23 pmol oocyte-1 h-1 and 6.19 pmol oocyte-1 h-1 and 4.62 pmol oocyte-1 h-1 and 6.53 pmol oocyte-1 h-1
- PfCRTDd2 transport activity pH 6.0 (CQ uptake, X. laevis oocytes expressing PfCRTDd2, pH 6.0, individual replicates (source data Fig 1d left)): 5.87 pmol oocyte-1 h-1 and 4.37 pmol oocyte-1 h-1 and 4.87 pmol oocyte-1 h-1 and 4.94 pmol oocyte-1 h-1 and 5.55 pmol oocyte-1 h-1 and 3.80 pmol oocyte-1 h-1 and 3.69 pmol oocyte-1 h-1 and 3.79 pmol oocyte-1 h-1 and 3.00 pmol oocyte-1 h-1 and 3.40 pmol oocyte-1 h-1 and 3.90 pmol oocyte-1 h-1 and 6.11 pmol oocyte-1 h-1 and 4.28 pmol oocyte-1 h-1 and 5.58 pmol oocyte-1 h-1 and 6.47 pmol oocyte-1 h-1 and 3.37 pmol oocyte-1 h-1 and 3.28 pmol oocyte-1 h-1 and 4.53 pmol oocyte-1 h-1 and 3.68 pmol oocyte-1 h-1 and 5.95 pmol oocyte-1 h-1
- PfCRTDd2 transport activity pH 4.5 with preincubation 1 h at pH 4.5 (CQ uptake, independent samples): 5.80 pmol oocyte-1 h-1 and 5.85 pmol oocyte-1 h-1 and 2.93 pmol oocyte-1 h-1
- PfCRTDd2 transport activity pH 4.5 without preincubation (CQ uptake, independent samples): 5.79 pmol oocyte-1 h-1 and 5.26 pmol oocyte-1 h-1 and 2.99 pmol oocyte-1 h-1
- Kd [1]: 320 ± 100 µM
- Kd (noncompetitive (partial) model, called KM, mean ± SEM): 220 ± 25 µM
- Activity at pH 4.5 [2]: 1.20 ± 0.10 pmol h-1 oocyte-1
- Activity at pH 6.0 [2]: 5.05 ± 0.23 pmol h-1 oocyte-1
- R-value (PfCRTDd2, CQ transport at pH 4.5 / pH 6.0): ~ 0.2 and 0.24 ± 0.01
- Vmax ± SEM (PfCRT^Dd2, pH 4.5): 14 ± 2 pmol h^−1 oocyte ^−1
- Vmax ± SEM (PfCRT^Dd2, pH 6.0): 32 ± 2 pmol h^−1 oocyte ^−1
- PfCRTDd2 R-value (R-value from transport activity at pH 4.5 and pH 6.0, individual replicates (source data Fig 1d left)): 0.23 and 0.27 and 0.25
- PfCRTDd2 R-value (R-value from transport activity at pH 4.5 and pH 6.0, oocytes expressing PfCRTDd2, source data Fig 1d left): 0.25
- pH of maximal CQ transport activity (bell-shaped curve, pH 4.5 to 7.0, 50 µM CQ): 6.2 ± 0.3 pH
- CQ transport activity, oocytes pre-treated 1 h at pH 4.5 vs untreated (in words): no significant differences
- Vmax [1]: 45 ± 9 pmol h^−1 oocyte^−1
- α (mixed (partial) model, factor by which KS values change when other substrate is bound): 0.53 ± 0.26
- β (mixed (partial) model, factor by which Vmax is affected by the inhibitor): 0.27 ± 0.06
- Vmax (noncompetitive (partial) model, mean ± SEM): 40 ± 4 pmol h^−1 oocyte^−1
- β (noncompetitive (partial) model, factor by which Vmax is affected by bound proton): 0.36 ± 0.02
- PfCRTDd2 transport activity pH 4.5 (pH 4.5, individual replicates (Fig 6a)): 0.82 pmol oocyte-1 h-1 and 2.03 pmol oocyte-1 h-1 and 1.25 pmol oocyte-1 h-1 and 0.75 pmol oocyte-1 h-1 and 1.02 pmol oocyte-1 h-1 and 0.89 pmol oocyte-1 h-1 and 0.81 pmol oocyte-1 h-1 and 1.13 pmol oocyte-1 h-1 and 0.91 pmol oocyte-1 h-1 and 1.51 pmol oocyte-1 h-1 and 1.64 pmol oocyte-1 h-1 and 1.57 pmol oocyte-1 h-1 and 1.05 pmol oocyte-1 h-1 and 1.43 pmol oocyte-1 h-1
- PfCRTDd2 transport activity pH 4.5 (pH 4.5, individual replicates, Fig 6b): 0.82 pmol oocyte-1 h-1 and 2.03 pmol oocyte-1 h-1 and 1.25 pmol oocyte-1 h-1 and 0.75 pmol oocyte-1 h-1 and 1.02 pmol oocyte-1 h-1 and 0.89 pmol oocyte-1 h-1 and 1.05 pmol oocyte-1 h-1 and 1.43 pmol oocyte-1 h-1
- PfCRTDd2 transport activity pH 4.5 (pH 4.5, oocytes expressing PfCRTDd2, individual replicate values, source data Fig 1d left): 1.57 pmol oocyte-1 h-1
- PfCRTDd2 transport activity pH 4.5 (pH 4.5, single replicates, Fig 1d left): 2.03 pmol oocyte-1 h-1 and 1.25 pmol oocyte-1 h-1 and 0.75 pmol oocyte-1 h-1 and 1.02 pmol oocyte-1 h-1 and 1.05 pmol oocyte-1 h-1 and 1.43 pmol oocyte-1 h-1 and 0.82 pmol oocyte-1 h-1
- PfCRTDd2 R-value (pH 4.5 vs pH 6.0, Fig 1d left): 0.27 and 0.30 and 0.19 and 0.23 and 0.17 and 0.15
- PfCRTDd2 transport activity pH 6.0 (pH 6.0, individual replicates, Fig 6b): 5.64 pmol oocyte-1 h-1 and 4.84 pmol oocyte-1 h-1 and 7.93 pmol oocyte-1 h-1 and 4.17 pmol oocyte-1 h-1 and 7.55 pmol oocyte-1 h-1 and 4.19 pmol oocyte-1 h-1 and 4.00 pmol oocyte-1 h-1 and 4.20 pmol oocyte-1 h-1 and 4.01 pmol oocyte-1 h-1 and 4.51 pmol oocyte-1 h-1 and 5.87 pmol oocyte-1 h-1 and 4.37 pmol oocyte-1 h-1 and 4.87 pmol oocyte-1 h-1 and 4.94 pmol oocyte-1 h-1 and 5.55 pmol oocyte-1 h-1 and 3.80 pmol oocyte-1 h-1 and 4.33 pmol oocyte-1 h-1 and 4.86 pmol oocyte-1 h-1 and 6.59 pmol oocyte-1 h-1 and 6.15 pmol oocyte-1 h-1 and 4.02 pmol oocyte-1 h-1 and 5.29 pmol oocyte-1 h-1 and 5.21 pmol oocyte-1 h-1
- PfCRTDd2 transport activity pH 6.0 (pH 6.0, oocytes expressing PfCRTDd2, individual replicate values, source data Fig 1d left): 11.50 pmol oocyte-1 h-1 and 6.00 pmol oocyte-1 h-1 and 4.23 pmol oocyte-1 h-1 and 6.19 pmol oocyte-1 h-1 and 4.62 pmol oocyte-1 h-1 and 6.53 pmol oocyte-1 h-1
- PfCRTDd2 transport activity pH 6.0 (pH 6.0, single replicates, Fig 1d left): 5.64 pmol oocyte-1 h-1 and 4.84 pmol oocyte-1 h-1 and 7.93 pmol oocyte-1 h-1 and 4.17 pmol oocyte-1 h-1 and 7.55 pmol oocyte-1 h-1 and 4.19 pmol oocyte-1 h-1 and 4.00 pmol oocyte-1 h-1 and 4.20 pmol oocyte-1 h-1 and 4.01 pmol oocyte-1 h-1 and 4.51 pmol oocyte-1 h-1 and 4.33 pmol oocyte-1 h-1 and 4.86 pmol oocyte-1 h-1 and 6.59 pmol oocyte-1 h-1 and 6.15 pmol oocyte-1 h-1 and 4.02 pmol oocyte-1 h-1 and 5.29 pmol oocyte-1 h-1 and 5.21 pmol oocyte-1 h-1
- PfCRTDd2 R-value (ratio of activity pH 4.5 / pH 6.0): 0.15 and 0.27 and 0.30 and 0.19 and 0.23 and 0.17
- PfCRTDd2 R-value (ratio of transport activity pH 4.5 to pH 6.0, individual replicates (Fig 6b)): 0.27 and 0.25
- PfCRTDd2 R-value (transport activity pH 4.5 relative to pH 6.0 (Fig 6a)): 0.15 and 0.27 and 0.30 and 0.19 and 0.23 and 0.25 and 0.17
